# Data published in patent US20240270809A1, “ORAL GLP RECEPTOR AGONISTS” (priority 2020, published 2024).
# Like-named read-outs stand apart in the source and are kept apart here. Positions of bridges follow the written chain, without caps; N, C: chain ends. Non-standard residues stand in square brackets, D forms with d. Residues, ends and D or L forms follow the SMILES beside them. *: point of attachment. Malonyl(2,2-Me2,histaminyl) = CC(C)(C(=O)NCCc1cnc[nH]1)C(=O)*; Ala(1H-tetrazol-5-yl) = N[C@@H](Cc1nnn[nH]1)C(=O)O; αMePhe(2-F) = C[C@](N)(Cc1ccccc1F)C(=O)O; Nle = CCCC[C@H](N)C(=O)O; Aib = CC(C)(N)C(=O)O
# Assays:
# human GLP2 receptor = target: T1, human GLP2 receptor (Homo sapiens, UniProt O95838); assay: cAMP accumulation assay, functional agonism of human GLP2 receptor; type: cell-based; settings: HEK cells infected with human GLP2 receptor BacMam virus, HTRF cAMP; for Emax: HEK293, read-out: Human GLP-2R agonist cAMP Emax; for EC50: read-out: Human GLP-2R agonist cAMP pEC50 (converted)
# T1 construct: expressed in transfected cells; host or cells: HEK cells, BacMam virus transduction
# T1 sequence (O95838 1-553): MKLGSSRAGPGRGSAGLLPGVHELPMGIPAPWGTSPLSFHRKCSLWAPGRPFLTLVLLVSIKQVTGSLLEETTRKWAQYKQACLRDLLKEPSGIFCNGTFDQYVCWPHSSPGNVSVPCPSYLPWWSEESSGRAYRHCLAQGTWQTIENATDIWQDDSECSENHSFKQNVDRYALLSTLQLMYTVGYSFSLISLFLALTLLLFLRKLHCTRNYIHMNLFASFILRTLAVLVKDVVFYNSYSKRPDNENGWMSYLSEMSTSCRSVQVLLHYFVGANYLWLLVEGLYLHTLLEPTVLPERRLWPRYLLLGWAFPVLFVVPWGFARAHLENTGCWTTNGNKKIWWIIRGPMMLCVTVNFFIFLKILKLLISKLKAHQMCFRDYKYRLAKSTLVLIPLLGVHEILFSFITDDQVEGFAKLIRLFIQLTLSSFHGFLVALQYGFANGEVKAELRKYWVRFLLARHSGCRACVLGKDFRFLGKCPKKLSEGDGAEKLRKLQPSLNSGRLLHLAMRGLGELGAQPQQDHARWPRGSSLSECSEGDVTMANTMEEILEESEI
# In short: (§1)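 cAMP by HTRF in BacMam-transduced HEK cells (24 h infection, frozen stocks); 0.5 mM IBMX in HBSS, 45 min, 37° C.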
# in vitro = settings: Sprague Dawley, rat, real gastrointestinal fluid or homogenate
# Procedure: (§2) Peptides were tested for in vitro stability in native intestinal fluid obtained from the rat small intestine. Rat Sprague Dawley Small Intestinal Fluid (ratIF) (from Biotrend art. no. RSD-SIF-MI-30ML, undiluted) was preincubated for 15 min at 37° C. and spiked with test and reference item working solutions. Experiments were conducted in duplicate in a non-serial manner. The total incubation volume per replicate was 150 μl. […] All samples and calibration standards (prepared in ratIF) were precipitated by addition of 300 μl precipitant (ACN / 2% acetic acid / 0.2% HFBA, (precipitation regent, PR)) containing internal standards (ISTD) to 150 μl sample. After incubation for 1 h at room temperature all samples were centrifuged for 10 min at 2,200×g (room temperature).
# mouse GLP2 receptor = target: T2, mouse GLP2 receptor (Mus musculus, UniProt Q5IXF8); assay: cAMP accumulation assay, functional agonism of mouse GLP2 receptor; type: cell-based
# T2 construct: expressed in transfected cells; host or cells: HEK cells, transient transfection with GeneJuice
# T2 sequence (Q5IXF8 1-512): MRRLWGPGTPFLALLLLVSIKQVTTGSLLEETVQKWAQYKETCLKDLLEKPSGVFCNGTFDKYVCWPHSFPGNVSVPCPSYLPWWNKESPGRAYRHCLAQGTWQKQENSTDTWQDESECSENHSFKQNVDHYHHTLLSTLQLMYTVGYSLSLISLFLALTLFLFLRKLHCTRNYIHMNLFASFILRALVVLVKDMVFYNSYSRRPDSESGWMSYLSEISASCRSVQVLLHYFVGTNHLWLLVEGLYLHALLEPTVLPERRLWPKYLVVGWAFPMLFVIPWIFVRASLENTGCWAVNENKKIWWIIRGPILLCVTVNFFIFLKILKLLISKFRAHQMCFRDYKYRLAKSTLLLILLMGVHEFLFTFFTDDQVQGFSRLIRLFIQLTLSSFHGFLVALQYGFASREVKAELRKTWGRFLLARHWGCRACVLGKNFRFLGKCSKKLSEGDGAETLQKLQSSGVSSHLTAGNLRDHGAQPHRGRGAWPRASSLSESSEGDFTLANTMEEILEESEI
# In short: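 pEC50 values come from four-parameter fits of HTRF cAMP signal, read after lysis and 1 h RT incubation. Compounds were incubated 45 min at 37 °C with previously frozen, transiently transfected HEK cells (8000/well) in HBSS containing 0.5 mM IBMX.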
# human GLP1 receptor = target: T3, human GLP1 receptor (Homo sapiens, UniProt P43220); assay: cAMP accumulation assay, functional agonism of human GLP1 receptor; type: cell-based; settings: HEK cells infected with human GLP1 receptor BacMam virus, HTRF cAMP; for Emax: HEK293, read-out: Human GLP-1R agonist cAMP Emax; for EC50: read-out: Human GLP-1R agonist cAMP pEC50 (converted)
# T3 construct: expressed in transfected cells; host or cells: HEK cells, BacMam virus transduction
# In short: as §1
# [1] = Stability of peptides in Fasted-State Simulated Gastric Fluid (FaSSGF); type: in vitro ADME; settings: FaSSGF with 0.1 mg/ml pepsin; t=30 mins, 37° C., pH 1.6, 0.1 mg/ml pepsin
# Procedure: Stability of peptides was tested in Fasted-State Simulated gastric Fluid (FaSSGF) prepared according to manufacturer's protocol (Biorelevant, art. no. FFF01). […] FaSSGF was pre-incubated for 15 min at 37° C. and spiked with test and reference item working solutions. Experiments were conducted in duplicate in a non-serial manner. The total incubation volume per replicate was 150 μl. […] All samples and calibration standards (prepared in FaSSGF) were precipitated by addition of 300 μl precipitant (ACN / 2% acetic acid / 0.2% HFBA, (precipitation regent, PR)) containing internal standards (ISTD) to 150 μl sample. After incubation for 1 h at room temperature all samples were centrifuged for 10 min at 2,200×g (room temperature).
# [2] = Stability of peptides in Fasted-State Simulated Intestinal Fluid (FaSSIF); type: in vitro ADME; settings: FaSSIF with 10 mg/ml pancreatin; t=30 mins, 37° C., pH 6.5, 10 mg/ml pancreatin
# Procedure: Stability of peptides was tested in Fasted-State Simulated Intestinal Fluid (FaSSIF) prepared according to manufacturer's protocol (Biorelevant, art.no. FFF01, pH 6.5). […] FaSSIF was pre-incubated for 15 min at 37° C. and spiked with test and reference item working solutions. Experiments were conducted in duplicate in a non-serial manner. The total incubation volume per replicate was 150 μl. Sampling time points for test items were 0, 0.5, 2, 5, 10, 15 and 30 min. All samples and calibration standards (prepared in FaSSIF) were precipitated by addition of 300 μl precipitant (ACN / 2% acetic acid / 0.2% HFBA, (precipitation reagent, PR)) containing internal standard (ISTD) to 150 μl sample. After incubation for 1 h at room temperature all samples were centrifuged for 10 min at 2,200×g (room temperature).
# [3] = Stability of peptides in rat intestinal fluid (ratIF); settings: Sprague Dawley, undiluted rat small intestinal fluid (ratIF)
# Procedure: as §2
# mouse GLP1 receptor = target: T4, mouse GLP1 receptor (Mus musculus, UniProt O35659); assay: cAMP accumulation assay, functional agonism of mouse GLP1 receptor; type: cell-based; settings: HEK cells transiently transfected with mouse GLP1 receptor, HTRF cAMP
# T4 construct: expressed in transfected cells; host or cells: HEK cells, transient transfection with GeneJuice
# T4 sequence (O35659 22-463): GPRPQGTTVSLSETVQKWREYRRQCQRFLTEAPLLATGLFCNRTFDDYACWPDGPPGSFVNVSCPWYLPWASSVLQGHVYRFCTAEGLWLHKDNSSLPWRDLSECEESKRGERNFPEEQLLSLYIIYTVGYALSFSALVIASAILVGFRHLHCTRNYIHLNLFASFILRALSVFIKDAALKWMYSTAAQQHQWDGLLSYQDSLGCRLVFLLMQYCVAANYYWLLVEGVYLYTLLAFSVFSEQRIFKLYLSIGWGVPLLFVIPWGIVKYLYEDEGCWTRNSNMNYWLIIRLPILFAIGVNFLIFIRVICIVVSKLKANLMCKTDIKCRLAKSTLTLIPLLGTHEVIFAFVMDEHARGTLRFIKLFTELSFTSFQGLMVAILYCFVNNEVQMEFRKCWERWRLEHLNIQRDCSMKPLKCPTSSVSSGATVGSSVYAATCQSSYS
# Procedure: CAMP production upon agonist stimulation of mouse GLP2 or GLP1 receptors was assessed utilizing HiRange cAMP kit (Cisbio). In brief, HEK cells were transiently transfected for 24 hours with cDNA using GeneJuice Transfection reagent (EMD Millipore) and frozen at −80° C. for later use in the assay. […] Cells were prepared in the assay buffer (HBSS (Lonza) supplemented with 0.5 mM IBMX (Tocris)). After 45 min incubation at 37° C., the reaction was stopped by addition of the HTRF detection reagents in the lysis buffer provided in the kit. Following 1-hour incubation at RT, plates were read on Pherastar FS (BMG Labtech, Inc.) using standard HTRF settings. Dotmatics Studies software was used for calculation of pEC50 values by fitting data to a four-parameter concentration response curve.
# [4] = HEK293, HEK cells transiently transfected with mouse GLP2 receptor, HTRF cAMP, read-out: Mouse GLP-2R agonist cAMP Emax
# [5] = HEK cells transiently transfected with mouse GLP2 receptor, HTRF cAMP, read-out: Mouse GLP-2R agonist cAMP pEC50 (converted)
# T3 sequence (P43220 24-463): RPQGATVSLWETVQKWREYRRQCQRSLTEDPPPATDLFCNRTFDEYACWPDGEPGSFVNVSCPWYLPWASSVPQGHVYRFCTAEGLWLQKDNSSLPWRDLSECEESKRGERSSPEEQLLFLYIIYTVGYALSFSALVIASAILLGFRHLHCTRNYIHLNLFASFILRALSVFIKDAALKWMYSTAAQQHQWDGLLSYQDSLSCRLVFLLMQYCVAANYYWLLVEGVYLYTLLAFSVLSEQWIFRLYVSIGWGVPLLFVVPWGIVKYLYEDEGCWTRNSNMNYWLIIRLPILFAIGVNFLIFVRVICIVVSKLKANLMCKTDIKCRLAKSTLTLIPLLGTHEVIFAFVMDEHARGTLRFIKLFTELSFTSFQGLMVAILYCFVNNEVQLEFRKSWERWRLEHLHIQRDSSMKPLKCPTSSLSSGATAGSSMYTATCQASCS
SMILES,Emax (human GLP2 receptor) [%],EC50 (human GLP2 receptor) [nM],remaining at 0.5 h (in vitro) [%],EC50 (mouse GLP2 receptor) [nM],"Emax (mouse GLP2 receptor; HEK293, read-out: Mouse GLP-2R agonist cAMP Emax) [%]",Emax (human GLP1 receptor) [%],EC50 (human GLP1 receptor) [nM],remaining at 0.5 h [1] [%],remaining at 0.5 h [2] [%],remaining at 0.5 h [3] [%],Emax (mouse GLP2 receptor; [4]) [%],EC50 (mouse GLP2 receptor; [5]) [nM],"Emax (mouse GLP1 receptor; HEK293, read-out: Mouse GLP-1R agonist cAMP Emax) [%]",EC50 (mouse GLP1 receptor; read-out: Mouse GLP-1R agonist cAMP pEC50 (converted)) [nM]
"CCCC[C@@H]1NC(=O)[C@H](CCC(=O)O)NC(=O)[C@@H](NC(=O)[C@H](CO)NC(=O)[C@](C)(Cc2ccccc2F)NC(=O)[C@H](CO)NC(=O)[C@@H](C)NC(=O)[C@H](Cc2nn[nH]n2)NC(=O)C(C)(C)C(=O)NCCc2c[nH]cn2)CCCCNC(=O)C[C@@H](C(=O)N[C@H](C(=O)N[C@@H](CC(C)C)C(=O)N[C@@H](CC(=O)O)C(=O)N[C@H]2CCC(=O)NCCCC[C@@H](C(=O)N[C@@H](CC(=O)O)C(=O)N[C@@H](Cc3ccccc3)C(=O)N[C@H](C(=O)N[C@H]3CCCCNC(=O)C[C@@H](C(=O)N[C@H]4CCC(=O)NCCCC[C@@H](C(N)=O)NC(=O)[C@H]([C@@H](C)O)NC(=O)[C@H]([C@@H](C)CC)NC(=O)[C@H](CCCCN)NC4=O)NC(=O)[C@H]([C@@H](C)CC)NC(=O)[C@H](CC(C)C)NC(=O)[C@H](Cc4c[nH]c5ccccc45)NC3=O)[C@@H](C)CC)NC(=O)[C@H](C)NC(=O)[C@H](C)NC(=O)[C@H](CCCCN)NC2=O)[C@@H](C)CC)NC(=O)[C@@H](Cc2ccccc2)NC1=O [Example 55] ({Malonyl(2,2-Me2,histaminyl)}-[Ala(1H-tetrazol-5-yl)][dA]S[αMePhe(2-F)]SKE[Nle][dF]DILDEKAAKDFIKWLIDEKITK-NH2; lactam 6-10, 14-18, 22-26, 27-31 (inferred); C-terminus assumed)",103,0.01,64.9,0.316,101,97.9,0.0501,,,,,,,
"CCCC[C@@H]1NC(=O)[C@H](CCC(=O)O)NC(=O)[C@@H](NC(=O)[C@H](CO)NC(=O)[C@](C)(Cc2ccccc2F)NC(=O)[C@H](CO)NC(=O)[C@@H](C)NC(=O)[C@H](CC(=O)O)NC(=O)C(C)(C)NC(=O)[C@@H](N)Cc2c[nH]cn2)CCCCNC(=O)C[C@@H](C(=O)N[C@H](C(=O)N[C@@H](CC(C)C)C(=O)N[C@@H](CC(=O)O)C(=O)N[C@H]2CCC(=O)NCCCC[C@@H](C(=O)N[C@@H](CC(=O)O)C(=O)N[C@@H](Cc3ccccc3)C(=O)N[C@H](C(=O)N[C@H]3CCCCNC(=O)C[C@@H](C(=O)N[C@H]4CCC(=O)NCCCC[C@@H](C(N)=O)NC(=O)[C@H]([C@@H](C)O)NC(=O)[C@H]([C@@H](C)CC)NC(=O)[C@H](CCCCN)NC4=O)NC(=O)[C@H]([C@@H](C)CC)NC(=O)[C@H](CC(C)C)NC(=O)[C@H](Cc4c[nH]c5ccccc45)NC3=O)[C@@H](C)CC)NC(=O)[C@H](C)NC(=O)[C@H](C)NC(=O)[C@H](CCCCN)NC2=O)[C@@H](C)CC)NC(=O)[C@@H](Cc2ccccc2)NC1=O [Example 59] (H-H[Aib]D[dA]S[αMePhe(2-F)]SKE[Nle][dF]DILDEKAAKDFIKWLIDEKITK-NH2; lactam 8-12, 16-20, 24-28, 29-33 (inferred); C-terminus assumed)",103,0.02,,,,95.2,0.2,100,61.9,63.6,103,0.501,,
"CCCC[C@@H]1NC(=O)[C@H](CCC(=O)O)NC(=O)[C@@H](NC(=O)[C@H](CO)NC(=O)[C@H](Cc2ccccc2)NC(=O)[C@H](CO)NC(=O)CNC(=O)[C@H](Cc2nn[nH]n2)NC(=O)C(C)(C)C(=O)NCCc2c[nH]cn2)CCCCNC(=O)C[C@@H](C(=O)N[C@H](C(=O)N[C@@H](CC(C)C)C(=O)N[C@@H](CC(=O)O)C(=O)N[C@H]2CCC(=O)NCCCC[C@@H](C(=O)N[C@@H](CC(=O)O)C(=O)N[C@@H](Cc3ccccc3)C(=O)N[C@H](C(=O)N[C@@H](CC(N)=O)C(=O)N[C@@H](Cc3c[nH]c4ccccc34)C(=O)N[C@@H](CC(C)C)C(=O)N[C@H](C(=O)N[C@@H](CCC(N)=O)C(=O)N[C@H](C(=O)N[C@H]3CCC(=O)NCCCC[C@@H](C(N)=O)NC(=O)[C@H]([C@@H](C)O)NC(=O)[C@H]([C@@H](C)CC)NC3=O)[C@@H](C)O)[C@@H](C)CC)[C@@H](C)CC)NC(=O)[C@H](C)NC(=O)[C@H](C)NC(=O)[C@H](CCCCN)NC2=O)[C@@H](C)CC)NC(=O)[C@@H](Cc2ccccc2)NC1=O [Example 2] ({Malonyl(2,2-Me2,histaminyl)}-[Ala(1H-tetrazol-5-yl)]GSFSKE[Nle][dF]DILDEKAAKDFINWLIQTEITK-NH2; lactam 6-10, 14-18, 28-31 (inferred); C-terminus assumed)",103,0.0316,,,,92.5,0.398,34,11,22.5,91.6,1,94.3,0.0398
